Reference: US6900221B1, “Stable polymorph on N-(3-ethynylphenyl)-6, 7-bis (2methoxyethoxy)-4-quinazolinamine hydrochloride, methods of production, and pharmaceutical uses thereof” (OSI Pharmaceuticals, Inc., priority 1999, dated 2005)
Values belong to the molecule of their own block, whether it stands above or below them.

Assays:
[1] = Thermodynamic stability of the polymorphic forms; type: physicochemical; settings: hydrochloride polymorph forms compared
[2] = Solubility in aqueous compositions; type: physicochemical; settings: compared with the hydrochloride compound
[3] = system: refractory ovarian cancer; assay: Phase II single agent study in refractory ovarian cancer; type: in vivo, human; settings: 150 mg daily, preliminary results
Source text: Evidence of anti-tumor activity can also be seen in the patients with ovarian cancer in the on-going Phase II study.

[4] = system: refractory non-small cell lung cancer (NSCLC); settings: 150 mg daily, first 19 evaluable patients
Source text: Qualification criteria for the open label, single agent study required the patients to have failed platinum-based chemotherapy and to have tumors that are histopathologically confirmed to be EGFR positive. The primary endpoint in the study is response rate with stable disease and time-to-progression amongst the secondary end-points.

[5] = Phase I clinical studies, safety; type: in vivo, human
Procedure: […]. […] In a daily dosing regimen study the dose limiting toxicity at 200 mg/day was diarrhea. This observed side effect was effectively controlled at the 150 mg daily dose level using Loperamide (Imodium®). […] The rash has a unique histopathology of PMN infiltration with mild epidermal hyperproliferation. It is not consistent with drug hypersensitivity nor does it appear to be a “named” dermatological condition. This rash has not been a significant impediment to patients staying on the Phase II trials. […]. […] For example, in one Phase I study of 28 patients, 8 patients remain alive over a year after inception of treatment and 12 patients remained alive from 9-22 months.

[6] = system: cancer patients with multiple tumor types; assay: Phase I clinical studies, preliminary evidence of effectiveness in cancer patients; type: in vivo, human; settings: one Phase I study of 28 patients
[7] = system: advanced head and neck cancer; assay: Phase II single agent study in advanced head and neck cancer; settings: 150 mg daily
[8] = advanced head and neck cancer, preliminary results

thermodynamic stability [1]: partially reduced stability
SMILES: C#Cc1cccc(Nc2ncnc3cc(OCCOC)c(OCCOC)cc23)c1.Cl [hydrochloride compound, [6,7-bis(2-methoxyethoxy)-quinazolin-4-yl]-(3-ethynylphenyl)amine hydrochloride, reference compound]

solubility in aqueous compositions [2]: more soluble
SMILES: C#Cc1cccc(Nc2ncnc3cc(OCCOC)c(OCCOC)cc23)c1 [mesylate compounds, N-(3-ethynylphenyl)-6,7-bis(2-methoxyethoxy)-4-quinazolinamine]

thermodynamic stability [1]: thermodynamically less stable
SMILES: C#Cc1cccc(Nc2ncnc3cc(OCCOC)c(OCCOC)cc23)c1.Cl [polymorph A, N-(3-ethynylphenyl)-6,7-bis(2-methoxyethoxy)-4-quinazolinamine hydrochloride]

patients reporting acneiform rash ([7]; first group of patients in the head and neck cancer study): approximately 70% | thermodynamic stability [1]: thermodynamically most stable
SMILES: C#Cc1cccc(Nc2ncnc3cc(OCCOC)c(OCCOC)cc23)c1.Cl [polymorph B, N-(3-ethynylphenyl)-6,7-bis(2-methoxyethoxy)-4-quinazolinamine hydrochloride]
patients with objective partial responses [3]: 2 patients | patients with stabilization of disease status [3]: 4 patients | patients with objective partial responses [4]: 5 patients | patients with stabilization of disease status [4]: 4 patients | most significant toxicity ([5]; 150 mg daily): monomorphic acneiform rash | severity of adverse events ([5]; Phase I, volunteers and cancer patients, dose of 150 mg/day): no adverse events that were greater than moderate in severity | dose limiting toxicity ([5]; daily dosing regimen study, 200 mg/day): diarrhea | safety profile ([5]; total of 290 patients in Phase I and ongoing Phase II studies): well tolerated safety profile | patients alive over a year after inception of treatment [6]: 8 patients | patients remained alive from 9-22 months [6]: 12 patients | patients with objective partial responses [7, 8]: 3 patients | patients with stabilization of disease status [7, 8]: 9 patients
